From US11731973B2, “Substituted pyrazolo[3,4-d]pyrimidines as mTOR inhibitors” (GALDERMA RESEARCH & DEVELOPMENT, priority 2018, dated 2023) come the findings set out here.

In one assay the target is mTORC2 (Homo sapiens (Human), UniProt P42345). Description: mTORC2 inhibitory activity: phosphorylation of AKT in A431 cells (HTRF). It is filed as cell-based. As to conditions: 3 hours at 37° C.
The target in another assay is mTORC1 (Homo sapiens (Human), UniProt P42345). Kind of assay: mTORC1 inhibitory activity: phosphorylation of S6RP in A431 cells (HTRF). It is filed as cell-based. The following applies: 3 hours at 37° C. On the technique in general: TR-FRET usually uses a lanthanide donor and a delayed reading to cut background.
The next assay deals with mTOR (Homo sapiens (Human), UniProt P42345). Kind of assay: Inhibitory activity on mTOR kinase (LANTHASCREEN TR-FRET). It is filed as biochemical. As to conditions: 1 hour reaction at room temperature.

Procedure for mTORC1: (§1) The serial dilutions of the test molecules are added (0.1% DMSO final). After incubation for 3 hours at 37° C., the phosphorylation of the biomarkers S6RP (mTORC1) and AKT (mTORC2) is measured using the HTRF technology (Cisbio) according to the supplier's recommendations. […] The IC50 values are calculated using a 4-parameter logistic model with the aid of the XLFit software (IDBS).
Procedure for mTORC2: as §1

For orientation: IC50 means the concentration at which inhibition is half-maximal. A low value points to inhibition by little substance. Broadly, the Ki is the dissociation constant of the complex between target and ligand, obtained from inhibition or displacement. On to `CCC(C)(C)Cn1nc(-c2cc(C)c3oc(N)nc3c2)c2c(N)nc(N)nc21` [Example 29, 3-(2-amino-7-methylbenzoxazol-5-yl)-1-(2,2-dimethylbutyl)-1H-pyrazolo[3,4-d]pyrimidine-4,6-diamine], for which the results for the IC50 at mTORC2 and at mTORC1 were 746 nM and 234 nM, respectively. On mTOR, the Ki was 102 nM.
For `CSC(C)(C)Cn1nc(-c2ccc3oc(N)nc3c2)c2c(N)nc(N)nc21` [Example 16, 3-(2-aminobenzoxazol-5-yl)-1-(2-methyl-2-methylsulfanylpropyl)-1H-pyrazolo[3,4-d]pyrimidine-4,6-diamine], in that order: 10.2 nM, 2.2 nM and 1.7 nM.
The matching figures for `CC(C)n1nc(-c2ccc3oc(N)nc3c2)c2c(N)nc(N)nc21` [Example 21, 3-(2-aminobenzoxazol-5-yl)-1-isopropyl-1H-pyrazolo[3,4-d]pyrimidine-4,6-diamine]: 10.7 nM, 3.8 nM and 3.8 nM.
The matching figures for `CC(C)(Cn1nc(-c2ccc3oc(N)nc3c2)c2c(N)nc(N)nc21)[C@@H]1CCCO1` [Example 13, (+)-3-(2-aminobenzoxazol-5-yl)-1-((S)-2-methyl-2-tetrahydrofuran-2-ylpropyl)-1H-pyrazolo[3,4-d]pyrimidine-4,6-diamine]: 4.1 nM, 1.4 nM and 1.2 nM.
For the molecule `CC(C)n1nc(-c2ccc3oc(N)nc3c2)c2cnc(N)nc21` [Example 24, 3-(2-aminobenzoxazol-5-yl)-1-isopropyl-1H-pyrazolo[3,4-d]pyrimidin-6-ylamine], the IC50 was found to be 15.5 nM at mTORC2 and 6.8 nM on mTORC1. In addition, the Ki on mTOR worked out at 6.1 nM.
As to `CCNc1nc2cc(-c3nn(CC(C)(C)C)c4nc(N)nc(N)c34)ccc2o1` [Example 11, 1-(2,2-dimethylpropyl)-3-(2-ethylaminobenzoxazol-5-yl)-1H-pyrazolo[3,4-d]pyrimidine-4,6-diamine], the values for the IC50 at mTORC2 and against mTORC1 were 5.9 nM and 5 nM, respectively. For the same molecule, the affinity at mTOR, expressed as Ki, was 0.8 nM.
For the molecule `C=CC(C)(C)Cn1nc(-c2ccc3oc(N)nc3c2)c2c(N)nc(N)nc21` [Example 12, 3-(2-aminobenzoxazol-5-yl)-1-(2,2-dimethylbut-3-enyl)-1H-pyrazolo[3,4-d]pyrimidine-4,6-diamine], the IC50 worked out at 3.7 nM against mTORC2 and 1.1 nM against mTORC1. This molecule yielded a Ki on mTOR of 1.2 nM.
The matching figures for `CC(C)[C@H](C)n1nc(-c2cc3nc(N)oc3cc2Cl)c2c(N)nc(N)nc21` [Example 25, 3-(2-amino-6-chlorobenzoxazol-5-yl)-1-((S)-1,2-dimethylpropyl)-1H-pyrazolo[3,4-d]pyrimidine-4,6-diamine]: 13.1 nM, 4.5 nM and 8.1 nM.
As for `CC(C)n1nc(-c2ccc3oc(NC4CC4)nc3c2)c2c(N)nc(N)nc21` [Example 28, 3-(2-cyclopropylaminobenzoxazol-5-yl)-1-isopropyl-1H-pyrazolo[3,4-d]pyrimidine-4,6-diamine], the IC50 is 40.2 nM against mTORC2 and 43.8 nM on mTORC1. Also, the Ki at mTOR was 21 nM.
Consider `CCC(C)(C)Cn1nc(-c2cc3nc(N)oc3cc2OC)c2c(N)nc(N)nc21` [Example 20, 3-(2-amino-6-methoxybenzoxazol-5-yl)-1-(2,2-dimethylbutyl)-1H-pyrazolo[3,4-d]pyrimidine-4,6-diamine], for which the IC50 against mTORC2 turned out to be 7 nM; against mTORC1 it was 2.1 nM. The same molecule registered a Ki at mTOR of 2.9 nM.
The matching figures for `CNc1nc(N)c2c(-c3ccc4oc(N)nc4c3)nn(C(C)C)c2n1` [Example 26, 3-(2-Aminobenzoxazol-5-yl)-1-isopropyl-N^6-methyl-1H-pyrazolo[3,4-d]pyrimidine-4,6-diamine]: 62.2 nM, 29.7 nM and 13.4 nM.
The matching figures for `CC(C)(CO)Cn1nc(-c2ccc3oc(N)nc3c2)c2c(N)nc(N)nc21` [Example 15, 3-[4,6-diamino-3-(2-aminobenzoxazol-5-yl)pyrazolo[3,4-d]pyrimidin-1-yl]-2,2-dimethylpropan-1-ol]: 7.2 nM, 1.7 nM and 1.5 nM.
For the molecule `CCC(CC)(Cn1nc(-c2ccc3oc(N)nc3c2)c2c(N)nc(N)nc21)S(C)(=O)=O` [Example 22, 3-(2-aminobenzoxazol-5-yl)-1-(2-ethyl-2-methanesulfonylbutyl)-1H-pyrazolo[3,4-d]pyrimidine-4,6-diamine], the figures for the IC50 on mTORC2 and on mTORC1 were 26.6 nM and 10.2 nM, respectively. For the same molecule, the Ki at mTOR was found to be 3.9 nM.
As to `C#CC(C)(C)Cn1nc(-c2ccc3oc(N)nc3c2)c2c(N)nc(N)nc21` [Example 14, 3-(2-aminobenzoxazol-5-yl)-1-(2,2-dimethylbut-3-ynyl)-1H-pyrazolo[3,4-d]pyrimidine-4,6-diamine], the IC50 on mTORC2 stood at 3.8 nM; against mTORC1 it was 1.2 nM. On mTOR, this molecule gave a Ki of 1.2 nM.
Take `CCC(C)(C)Cn1nc(-c2ccc3oc(N)nc3c2)c2c(N)nc(N)nc21` [Example 8, 3-(2-aminobenzoxazol-5-yl)-1-(2,2-dimethylbutyl)-1H-pyrazolo[3,4-d]pyrimidine-4,6-diamine]: the IC50 was 3 nM at mTORC2 and 1.2 nM against mTORC1. Besides, at mTOR, the Ki was determined as 0.6 nM.
Regarding `CC1(Cn2nc(-c3cc4nc(N)oc4cc3F)c3c(N)nc(N)nc32)CCC1` [Example 4, 3-(2-amino-6-fluorobenzoxazol-5-yl)-1-(1-methylcyclobutylmethyl)-1H-pyrazolo[3,4-d]pyrimidine-4,6-diamine], the figures for the IC50 against mTORC2 and against mTORC1 were 3.4 nM and 1.3 nM, respectively.
With `CC(C)Cn1nc(-c2ccc3oc(N)nc3c2)c2c(Cl)nc(N)nc21` [Example 23, 3-(2-aminobenzoxazol-5-yl)-4-chloro-1-isobutyl-1H-pyrazolo[3,4-d]pyrimidin-6-ylamine], the values for the IC50 against mTORC2 and against mTORC1 were 5.9 nM and 2.8 nM, respectively. For the same molecule, the affinity on mTOR corresponds to a Ki of 5.8 nM.
For `CC(C)C[C@H](C)n1nc(-c2cc3nc(N)oc3cc2F)c2c(N)nc(N)nc21` [Example 2, 3-(2-amino-6-fluorobenzoxazol-5-yl)-1-((S)-1,3-dimethylbutyl)-1H-pyrazolo[3,4-d]pyrimidine-4,6-diamine], in that order: 2.1 nM, 1.2 nM and 1 nM.
For `COc1cc2oc(N)nc2cc1-c1nn(CC(C)(C)C)c2nc(N)nc(N)c12` [Example 18, 3-(2-amino-6-methoxybenzoxazol-5-yl)-1-(2,2-dimethylpropyl)-1H-pyrazolo[3,4-d]pyrimidine-4,6-diamine], the IC50 at mTORC2 is 4.3 nM; at mTORC1, 2.1 nM. Affinity on mTOR was put at a Ki of 2.1 nM.
As to `Cc1nc(N)nc2c1c(-c1ccc3oc(N)nc3c1)nn2CC(C)(C)C` [Example 27, 5-(6-amino-4-methyl-1-neopentyl-1H-pyrazolo[3,4-d]pyrimidin-3-yl)benzo[d]oxazol-2-amine], the IC50 stood at 15.3 nM against mTORC2 and 8.1 nM on mTORC1. The molecule also returned a Ki at mTOR of 14.3 nM.
With `CC(C)(C)Cn1nc(-c2cc3cc(O)cnc3[nH]2)c2c(N)nc(N)nc21` [Example 19, 2-[4,6-diamino-1-(2,2-dimethylpropyl)-1H-pyrazolo[3,4-d]pyrimidin-3-yl]-1H-pyrrolo[2,3-b]pyridin-5-ol], the 50% inhibitory concentration (IC50) against mTORC2 was 65.5 nM; on mTORC1, 27.4 nM. In addition, the Ki on mTOR stood at 2.3 nM.
